Common to all, as to test: relative viability (nuclei count vs DMSO), 5 days (fraction); higher = more cells survive
Compound in the assay “Tivantinib + Luminespib”: O=C1NC(=O)[C@@H](c2cn3c4c(cccc24)CCC3)[C@@H]1c1c[nH]c2ccccc12 [Tivantinib] + CCNC(=O)c1noc(-c2cc(C(C)C)c(O)cc2O)c1-c1ccc(CN2CCOCC2)cc1 [Luminespib] (partner 0.01 µM)
The procedure, abridged:
(§1)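 Relative viability was taken as the ratio of nuclei in treated wells to nuclei in vehicle wells. Lung cancer cell lines in 1536-well plates received compounds by pin tool one day after seeding, either one drug alone or a fixed anchor-drug dose plus five library-drug doses (not always all listed) in √10 steps. Nuclei were counted on 4× images after 5 days of treatment, and values are medians of duplicate plates.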

Compound in the assay “Tivantinib + Phenformin”: O=C1NC(=O)[C@@H](c2cn3c4c(cccc24)CCC3)[C@@H]1c1c[nH]c2ccccc12 [Tivantinib] + N=C(N)NC(=N)NCCc1ccccc1 [Phenformin] (partner 250 µM)
The procedure, abridged:
as §1

Compound in the assay “Tivantinib + Palbociclib”: O=C1NC(=O)[C@@H](c2cn3c4c(cccc24)CCC3)[C@@H]1c1c[nH]c2ccccc12 [Tivantinib] + CC(=O)c1c(C)c2cnc(Nc3ccc(N4CCNCC4)cn3)nc2n(C2CCCC2)c1=O [Palbociclib] (partner 0.5 µM)
In short, it runs like this:
as §1

Compound in the assay “Crenolanib + Lapatinib”: CC1(COc2ccc3c(c2)ncn3-c2ccc3cccc(N4CCC(N)CC4)c3n2)COC1 [Crenolanib] + CS(=O)(=O)CCNCc1ccc(-c2ccc3ncnc(Nc4ccc(OCc5cccc(F)c5)c(Cl)c4)c3c2)o1 [Lapatinib] (partner 2 µM)
The procedure, abridged: as §1

As to NCI-H2342, the relative viability with Tivantinib + Luminespib (first compound 0.01 µM) turned out to be 0.741; with Tivantinib + Luminespib (first compound 0.03162 µM) it was 0.739; in the assay with Tivantinib + Luminespib (first compound 0.1 µM), 0.716; with Tivantinib + Luminespib (first compound 0.3162 µM), 0.598; in the assay with Tivantinib + Phenformin (first compound 0.01 µM), 0.579; with Tivantinib + Phenformin (first compound 0.03162 µM) it was 0.671. Further, the relative viability with Tivantinib + Phenformin (first compound 0.1 µM) is 0.568; in the assay with Tivantinib + Phenformin (first compound 0.3162 µM), 0.495; in the assay with Tivantinib + Palbociclib (first compound 0.01 µM), 0.498; with Tivantinib + Palbociclib (first compound 0.03162 µM), 0.49; in the assay with Tivantinib + Palbociclib (first compound 0.1 µM), 0.719; with Tivantinib + Palbociclib (first compound 0.3162 µM) it was 0.438.
On to SK-MES-1, for which the relative viability with Tivantinib + Luminespib (first compound 0.01 µM) was 0.763; with Tivantinib + Luminespib (first compound 0.03162 µM) it was 0.747; with Tivantinib + Luminespib (first compound 0.3162 µM), 0.828; in the assay with Crenolanib + Lapatinib (first compound 0.01 µM) it was 0.449; with Crenolanib + Lapatinib (first compound 0.03162 µM), 0.504; with Crenolanib + Lapatinib (first compound 0.1 µM), 0.422. Further, the relative viability in the assay with Crenolanib + Lapatinib (first compound 0.3162 µM) stood at 0.467; with Crenolanib + Lapatinib (first compound 1 µM), 0.458; with Tivantinib + Phenformin (first compound 0.01 µM) it was 0.676; with Tivantinib + Phenformin (first compound 0.03162 µM), 0.672; with Tivantinib + Phenformin (first compound 0.1 µM), 0.619; with Tivantinib + Phenformin (first compound 0.3162 µM) it was 0.673. Also, the relative viability with Tivantinib + Palbociclib (first compound 0.01 µM) is 0.336; with Tivantinib + Palbociclib (first compound 0.03162 µM) it was 0.345; with Tivantinib + Palbociclib (first compound 0.1 µM) it was 0.296; in the assay with Tivantinib + Palbociclib (first compound 0.3162 µM), 0.361.
EPLC-272H: the relative viability with Tivantinib + Luminespib (first compound 0.01 µM) worked out at 0.374; in the assay with Tivantinib + Luminespib (first compound 0.03162 µM), 0.23; with Tivantinib + Luminespib (first compound 0.1 µM) it was 0.431; with Tivantinib + Luminespib (first compound 0.3162 µM), 0.19; with Crenolanib + Lapatinib (first compound 0.03162 µM) it was 0.877; in the assay with Crenolanib + Lapatinib (first compound 0.1 µM), 0.722. For the same cell line, the relative viability in the assay with Crenolanib + Lapatinib (first compound 0.3162 µM) came out at 0.977; with Crenolanib + Lapatinib (first compound 1 µM) it was 1.02; with Tivantinib + Phenformin (first compound 0.01 µM), 0.248; in the assay with Tivantinib + Phenformin (first compound 0.03162 µM), 0.294; with Tivantinib + Phenformin (first compound 0.1 µM), 0.296; with Tivantinib + Phenformin (first compound 0.3162 µM), 0.0595. The relative viability is 0.298 in the assay with Tivantinib + Palbociclib (first compound 0.01 µM), 0.323 in the assay with Tivantinib + Palbociclib (first compound 0.03162 µM), 0.308 with Tivantinib + Palbociclib (first compound 0.1 µM) and 0.273 with Tivantinib + Palbociclib (first compound 0.3162 µM).
As to HCC-44, the relative viability worked out at 1.13 in the assay with Tivantinib + Luminespib (first compound 0.01 µM); 1 with Tivantinib + Luminespib (first compound 0.03162 µM); 0.954 with Tivantinib + Luminespib (first compound 0.1 µM); 0.634 with Tivantinib + Luminespib (first compound 0.3162 µM); 1.02 with Crenolanib + Lapatinib (first compound 0.01 µM); 0.997 with Crenolanib + Lapatinib (first compound 0.03162 µM). For the same cell line, the relative viability was 0.901 with Crenolanib + Lapatinib (first compound 0.1 µM); 0.999 with Crenolanib + Lapatinib (first compound 0.3162 µM); 0.905 in the assay with Crenolanib + Lapatinib (first compound 1 µM); 0.325 with Tivantinib + Phenformin (first compound 0.01 µM); 0.171 with Tivantinib + Phenformin (first compound 0.03162 µM); 0.225 with Tivantinib + Phenformin (first compound 0.1 µM). Also, the relative viability worked out at 0.215 with Tivantinib + Phenformin (first compound 0.3162 µM); 0.946 in the assay with Tivantinib + Palbociclib (first compound 0.01 µM); 0.953 with Tivantinib + Palbociclib (first compound 0.03162 µM); 0.883 with Tivantinib + Palbociclib (first compound 0.1 µM); 0.945 with Tivantinib + Palbociclib (first compound 0.3162 µM).
As for 201T, the relative viability in the assay with Tivantinib + Luminespib (first compound 0.01 µM) is 1.07; with Tivantinib + Luminespib (first compound 0.03162 µM), 1.05; in the assay with Tivantinib + Luminespib (first compound 0.1 µM), 1.01; with Tivantinib + Luminespib (first compound 0.3162 µM), 1.09; in the assay with Crenolanib + Lapatinib (first compound 0.01 µM), 1; in the assay with Crenolanib + Lapatinib (first compound 0.03162 µM) it was 1.02. In addition, the relative viability was 1.03 with Crenolanib + Lapatinib (first compound 0.1 µM); 0.965 with Crenolanib + Lapatinib (first compound 0.3162 µM); 1.01 with Crenolanib + Lapatinib (first compound 1 µM); 0.421 with Tivantinib + Phenformin (first compound 0.01 µM); 0.458 with Tivantinib + Phenformin (first compound 0.03162 µM); 0.415 with Tivantinib + Phenformin (first compound 0.1 µM). Moreover, the relative viability with Tivantinib + Phenformin (first compound 0.3162 µM) is 0.451; in the assay with Tivantinib + Palbociclib (first compound 0.01 µM), 0.368; in the assay with Tivantinib + Palbociclib (first compound 0.03162 µM), 0.386; in the assay with Tivantinib + Palbociclib (first compound 0.1 µM), 0.364; in the assay with Tivantinib + Palbociclib (first compound 0.3162 µM), 0.348.
Consider HOP-62, for which the relative viability in the assay with Tivantinib + Luminespib (first compound 0.01 µM) came out at 0.889; with Tivantinib + Luminespib (first compound 0.03162 µM), 0.892; with Tivantinib + Luminespib (first compound 0.1 µM) it was 0.917; in the assay with Tivantinib + Luminespib (first compound 0.3162 µM), 0.89; in the assay with Crenolanib + Lapatinib (first compound 0.01 µM) it was 0.869; with Crenolanib + Lapatinib (first compound 0.03162 µM) it was 1. Moreover, the relative viability was 0.991 in the assay with Crenolanib + Lapatinib (first compound 0.1 µM); 1.08 with Crenolanib + Lapatinib (first compound 0.3162 µM); 0.834 with Crenolanib + Lapatinib (first compound 1 µM); 0.708 in the assay with Tivantinib + Phenformin (first compound 0.01 µM); 0.524 with Tivantinib + Phenformin (first compound 0.03162 µM); 0.65 in the assay with Tivantinib + Phenformin (first compound 0.1 µM). Moreover, the relative viability in the assay with Tivantinib + Phenformin (first compound 0.3162 µM) worked out at 0.821; in the assay with Tivantinib + Palbociclib (first compound 0.01 µM), 0.454; in the assay with Tivantinib + Palbociclib (first compound 0.03162 µM), 0.399; with Tivantinib + Palbociclib (first compound 0.1 µM), 0.425; with Tivantinib + Palbociclib (first compound 0.3162 µM) it was 0.466.
As to NCI-H650, the relative viability was found to be 0.895 with Tivantinib + Luminespib (first compound 0.01 µM); 0.798 in the assay with Tivantinib + Luminespib (first compound 0.03162 µM); 0.739 with Tivantinib + Luminespib (first compound 0.1 µM); 0.432 with Tivantinib + Luminespib (first compound 0.3162 µM); 0.83 with Crenolanib + Lapatinib (first compound 0.01 µM); 1.15 with Crenolanib + Lapatinib (first compound 0.03162 µM). The relative viability with Crenolanib + Lapatinib (first compound 0.1 µM) came out at 0.884; in the assay with Crenolanib + Lapatinib (first compound 0.3162 µM), 0.841; with Crenolanib + Lapatinib (first compound 1 µM), 0.655; with Tivantinib + Phenformin (first compound 0.01 µM), 0.47; with Tivantinib + Phenformin (first compound 0.03162 µM), 0.387; in the assay with Tivantinib + Phenformin (first compound 0.1 µM) it was 0.448. The relative viability in the assay with Tivantinib + Phenformin (first compound 0.3162 µM) was found to be 0.479; with Tivantinib + Palbociclib (first compound 0.01 µM), 0.392; in the assay with Tivantinib + Palbociclib (first compound 0.03162 µM) it was 0.32; in the assay with Tivantinib + Palbociclib (first compound 0.1 µM), 0.314; with Tivantinib + Palbociclib (first compound 0.3162 µM) it was 0.323.
Regarding NCI-H2085, the relative viability is 0.429 with Tivantinib + Luminespib (first compound 0.01 µM); 0.379 with Tivantinib + Luminespib (first compound 0.03162 µM); 0.403 with Tivantinib + Luminespib (first compound 0.1 µM); 0.42 with Tivantinib + Luminespib (first compound 0.3162 µM); 0.65 with Crenolanib + Lapatinib (first compound 0.01 µM); 0.81 in the assay with Crenolanib + Lapatinib (first compound 0.03162 µM). Also, the relative viability came out at 0.731 in the assay with Crenolanib + Lapatinib (first compound 0.1 µM); 0.745 with Crenolanib + Lapatinib (first compound 0.3162 µM); 0.799 in the assay with Crenolanib + Lapatinib (first compound 1 µM); 0.774 with Tivantinib + Phenformin (first compound 0.01 µM); 0.639 with Tivantinib + Phenformin (first compound 0.03162 µM); 0.699 in the assay with Tivantinib + Phenformin (first compound 0.1 µM). In addition, the relative viability came to 0.519 with Tivantinib + Phenformin (first compound 0.3162 µM); 0.472 in the assay with Tivantinib + Palbociclib (first compound 0.01 µM); 0.483 with Tivantinib + Palbociclib (first compound 0.03162 µM); 0.463 with Tivantinib + Palbociclib (first compound 0.1 µM); 0.468 in the assay with Tivantinib + Palbociclib (first compound 0.3162 µM).

The values above are taken from the supplement of paper PMC10307832.
